Results reported in the NIST ThermoML archive (doi:10.1016/j.jct.2005.03.003).
± gives the expanded uncertainty stated by the source.

Experiments:
[1] = Liquid; for mass density: 298.2 K, 101.33 kPa
[2] = refractive index (Na D-line) (dimensionless); conditions: 298.2 K; 101.33 kPa; Liquid; Standard Abbe refractometry

For CC(=O)O [acetic acid], the mass density [1] was 1049.44 ± 3 kg/m3, the Normal boiling temperature ([1]; Fischer boiling point apparatus:FP) was 118.1 ± 0.2 °C and the refractive index [2] was 1.3715 ± 0.0012.
Compound CCCCOC(=O)c1ccccc1C(=O)OCCCC [dibutyl phthalate] has a mass density ([1]; Vibrating tube method) of 1050.13 ± 1.4 kg/m3, a Normal boiling temperature ([1]; Fischer boiling point apparatus) of 340.1 ± 0.2 °C and a refractive index [2] of 1.4906 ± 0.0013.
